How the values were obtained:
NCI-H358 cells = experiment: Inhibition of NCI-H358 cell proliferation under 3D non-anchored conditions (CellTiter-Glo 3D); type: cell-based; details: Homo sapiens, NCI-H358 cells (KRAS G12C mutation), 120 hours
Experimental: The following method was used to determine the effects of the compounds of the present invention on NCI-H358 cell proliferation under three-dimensional (3D) non-anchored conditions. NCI-H358 cells (containing KRAS G12C mutation) were purchased from the Cell Resource Center of Shanghai Institutes for Biological Sciences, Chinese Academy of Sciences, and cultured in RPMI 1640 medium containing 10% fetal bovine serum, 100 U penicillin, 100 μg/mL streptomycin and 1 mM Sodium Pyruvate. The activities of the cells were determined by CellTiter-Glo® 3D Cell Viability Assay Kit (Promega, Art. No. G9683).
The experimental method was operated according to the steps in the kit instruction, which can be briefly described as follows: the test compounds were first dissolved in DMSO to prepare storage solutions of 10 mM, and then diluted with culture mediums to prepare test samples. The final concentrations of the compounds were 10000 nM to 0.15 nM. Cells in logarithmic phase were inoculated in an ultra-low adsorption 384-well cell culture plate (PerkinElmer, #3830) with 2000 cells per well, and the test compounds were added and cultured for 120 hours. After the culture was completed, 30 μL of CellTiter-Glo 3D detection solution was added to each well, shaken for 30 minutes and then stood for 120 minutes. Then, a Luminescence mode was used to read the luminescence values of each well of the samples on a microplate reader. By comparing with the numerical value of a control group (0.1% DMSO), the percentage inhibition rates of the compounds at each concentration were calculated, and the IC50 values of the compounds inhibiting cell proliferation were obtained by performing nonlinear regression analysis with logarithmic values of the compound concentration-inhibition rate by GraphPad Prism 5 software, which can be seen in Table 4.

KRAS-G12C/SOS1 = target: T1, KRAS-G12C/SOS1 (Homo sapiens, UniProt Q07889); experiment: Blocking the binding of KRAS G12C protein to SOS1 (Cisbio KRAS-G12C/SOS1 binding assay kit, TR-FRET); details: Tag1-SOS1 and Tag2-KRAS-G12C, TR-FRET 665/620; read-out: IC50 (nM) Inhibition of KRAS-G12C/SOS1 binding
T1 construct: purchased Cisbio 63ADK000CB16PEG
T1 sequence (Q07889 1-1333): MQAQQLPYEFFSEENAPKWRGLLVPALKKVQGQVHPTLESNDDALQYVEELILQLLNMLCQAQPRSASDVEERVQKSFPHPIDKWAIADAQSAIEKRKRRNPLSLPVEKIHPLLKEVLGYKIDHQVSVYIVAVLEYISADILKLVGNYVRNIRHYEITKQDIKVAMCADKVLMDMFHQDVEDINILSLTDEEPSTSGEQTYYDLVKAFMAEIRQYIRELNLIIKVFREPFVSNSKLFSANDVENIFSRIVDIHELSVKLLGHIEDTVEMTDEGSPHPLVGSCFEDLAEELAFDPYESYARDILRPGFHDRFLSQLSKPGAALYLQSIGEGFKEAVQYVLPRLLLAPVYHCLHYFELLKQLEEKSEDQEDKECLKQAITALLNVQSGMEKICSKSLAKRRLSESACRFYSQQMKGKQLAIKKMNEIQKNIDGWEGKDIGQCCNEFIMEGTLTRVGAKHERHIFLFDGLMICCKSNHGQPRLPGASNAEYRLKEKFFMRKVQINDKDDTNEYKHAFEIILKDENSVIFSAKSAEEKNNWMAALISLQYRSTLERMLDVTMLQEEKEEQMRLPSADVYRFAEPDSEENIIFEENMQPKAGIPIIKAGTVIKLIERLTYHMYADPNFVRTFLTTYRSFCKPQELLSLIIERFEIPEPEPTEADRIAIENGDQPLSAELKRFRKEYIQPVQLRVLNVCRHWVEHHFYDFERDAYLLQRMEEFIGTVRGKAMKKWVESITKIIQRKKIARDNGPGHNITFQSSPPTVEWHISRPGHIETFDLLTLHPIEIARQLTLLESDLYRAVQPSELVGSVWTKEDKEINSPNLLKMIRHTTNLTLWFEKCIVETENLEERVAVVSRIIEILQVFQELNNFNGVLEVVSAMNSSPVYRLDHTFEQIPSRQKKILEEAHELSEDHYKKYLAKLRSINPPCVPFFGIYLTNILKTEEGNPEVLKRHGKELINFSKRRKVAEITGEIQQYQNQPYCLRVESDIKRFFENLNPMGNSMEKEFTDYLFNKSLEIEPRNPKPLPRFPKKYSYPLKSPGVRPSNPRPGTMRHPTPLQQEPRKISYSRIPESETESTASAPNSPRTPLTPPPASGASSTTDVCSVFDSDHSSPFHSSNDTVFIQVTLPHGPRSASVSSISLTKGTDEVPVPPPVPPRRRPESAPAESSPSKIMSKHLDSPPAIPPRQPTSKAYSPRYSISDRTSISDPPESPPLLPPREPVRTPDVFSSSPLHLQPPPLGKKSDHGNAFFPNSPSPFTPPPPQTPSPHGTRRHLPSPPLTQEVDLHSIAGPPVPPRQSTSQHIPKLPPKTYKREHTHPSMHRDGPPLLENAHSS
Source text: The following method was used to determine the abilities of compounds of the invention to block the interaction of SOS1 with the KRAS G12C protein in vitro. KRAS-G12C/SOS1 BINDING ASSAY KITS (Art. No. 63ADK000CB16PEG) from Cisbio was used in this method. Please refer to the kit instruction for detailed experimental operations.
The experimental process can be briefly described as follows: diluent buffer (Art. No. 62DLBDDF) was used to prepare a working solution with a concentration of 5× for Tag1-SOS1 and Tag2-KRAS-G12C protein. The test compounds were dissolved in DMSO to prepare storage solutions of 10 mM, and then the solutions were diluted with dilution buffer for later use. First, 2 μL of the test compound (the final concentrations of the reaction system were 10000 nM-0.1 nM) was added to the well, then 4 μL of Tag1-SOS1 5× working solution and 4 μL of Tag2-KRAS-G12C 5× working solution were added, and the above mixture was centrifuged, mixed, and stood for 15 minutes; then 10 μL of premixed anti-Tag1-Tb^3+ and anti-Tag2-XL665 were added, and the mixture was incubated at room temperature for 2 hours; finally, a microplate reader was used in […] mode to measure the fluorescence intensity of each well emitting wavelengths of 620 nm and […] under the excitation wavelength of 304 nm, and the fluorescence intensity ratio 665/620 in each well was calculated. Compared with the fluorescence intensity ratio of a control group (0.1% DMSO), the percentage inhibition rates of the test compounds at each concentration were calculated, and the IC50 values of the compounds were obtained by performing nonlinear regression analysis with logarithmic values of the compound concentration-inhibition rate by GraphPad Prism 5 software, which was shown in Table 1.

OCI-AML5 cells = experiment: Inhibition of OCI-AML5 cell proliferation (CellTiter-Glo); type: cell-based; details: Homo sapiens, OCI-AML-5; OCI-AML5 cells (SOS1 N233Y mutation), 120 hours
Experimental: The following method was used to determine the influence of the compounds of the present invention on OCI-AML5 cells proliferation. OCI-AML5 cells (containing SOS1 N233Y mutation) were purchased from Nanjing Kebai Biotechnology Co., Ltd. and cultured in MEMα medium containing 10% fetal bovine serum, 100 U penicillin, and 100 μg/mL streptomycin. The activities of the cells were determined by CellTiter-Glo® Luminescent Cell Viability Assay Kit (Promega, Art. No. G7573).
The experimental method was operated according to the steps in the kit instruction, which were briefly described as follows: the test compounds were first dissolved in DMSO to prepare storage solutions of 10 mM, and then diluted with culture mediums to prepare test samples. The final concentrations of the compounds were 10000 nM to 0.15 nM. Cells in logarithmic phase were inoculated in a 96-well cell culture plate with 1,000 cells per well, after cultured overnight in 5% CO2 incubator at 37° C., the test compounds were added to the incubator to continue the culture for 120 hours. After the culture was completed, 50 μL of CellTiter-Glo detection solution was added to each well, shaken for 5 minutes and then stood for 10 minutes. Then, a Luminescence mode was used to read the luminescence values of each well of the samples on a microplate reader.

p-ERK1/2 in DLD-1 cells = experiment: Inhibition of p-ERK1/2 in DLD-1 cells (Cisbio Advanced phospho-ERK1/2 kit); type: cell-based; details: Homo sapiens; DLD-1 cells (KRAS G13D mutation), hEGF 5 nM stimulation; read-out: IC50 (nM) Inhibition on p-ERK½ in DLD-1 cells
Source text: The following method was used to determine the inhibition activities of the compounds of the present invention on p-ERK1/2 in DLD-1 cells. The Advanced phospho-ERK1/2 (Thr202/tyr2O4) kit (Art. No. 64AERPEH) from Cisbio was used in this method. Please refer to the kit instruction for detailed experimental operations. DLD-1 cells (containing KRAS G13D mutation) were purchased from the Cell Resource Center of Shanghai Institutes for Biological Sciences, Chinese Academy of Sciences.
The experimental process can be briefly described as follows: DLD-1 cells were cultured in RPMI 1640 complete medium containing 10% fetal bovine serum, 100 U penicillin, 100 μg/mL streptomycin and 1 mM Sodium Pyruvate. DLD-1 cells were plated in a 96-well plate at 30,000 cells per well, after cultured overnight in 5% CO2 incubator at 37° C. with complete culture medium. The test compounds were dissolved in DMSO to prepare storage solutions of 10 mM, and then diluted with RPMI 1640 basic mediums. 90 μL of RPMI 1640 basic mediums containing the test compounds at the corresponding concentration were added to each well. The final concentrations of the test compounds in the reaction system were 10,000 nM to 0.15 nM, and were placed in a cell culture incubator for 3 hours and 40 minutes. Subsequently, 10 μL of hEGF (purchased from Roche, Art. No. 11376454001) prepared with RPMI 1640 basic medium was added to a final concentration of 5 nM, and placed in the incubator for culturing for 20 minutes. The cell supernatant was discarded, and the cells were washed with PBS on ice-bath. Then, 45 μl of 1× cell phospho/total protein lysis buffer (component of Advanced phospho-ERK1/2 kit) was added to each well for lysis. The 96-well plate was placed on ice for 0.5 hours to lyse, and then the lysate was detected according to the instruction of the Advanced phospho-ERK1/2 (Thr202/tyr2O4) kit. Finally, the microplate reader was used in […] mode to measure the fluorescence intensity of each well emitting wavelengths of 620 nm and […] under the excitation wavelength of 304 nm, and the fluorescence intensity ratio 665/620 in each well was calculated. By comparing with the fluorescence intensity ratio of a control group (0.1% DMSO), the percentage inhibition rates of the test compounds at each concentration were calculated, and the IC50 values of the compounds were obtained by performing nonlinear regression analysis with logarithmic values of the compound concentration-inhibition rate by GraphPad Prism 5 software, which can be seen in Table 3.

Compound	IC50 (NCI-H358 cells) [nM]	IC50 (KRAS-G12C/SOS1) [nM]	IC50 (OCI-AML5 cells) [nM]	IC50 (p-ERK1/2 in DLD-1 cells) [nM]
COc1cc2nc(C)nc(N[C@H](C)c3cccc(C#N)c3C)c2cc1N1CCN(CCO)CC1 [Compound 20, (R)-3-(1-((6-(4-(2-hydroxyethyl)piperazin-1-yl)-7-methoxy-2-methylquinazolin-4-yl)amino)ethyl)-2-methylbenzonitrile]	52.4	–	–	–
COc1cc2nc(C)nc(N[C@H](C)c3cccc(C#N)c3C)c2cc1N1CCC(N2CCOCC2)CC1 [Compound 6, (R)-3-(1-((7-methoxy-2-methyl-6-(4-morpholinopiperidin-1-yl)quinazolin-4-yl)amino)ethyl)-2-methylbenzonitrile]	–	1.1	5.5	–
COc1cc2nc(C)nc(N[C@H](C)c3cccc(C#N)c3C)c2cc1N1CC(C#N)C1 [Compound 12, (R)-1-(4-((1-(3-cyano-2-methylphenyl)ethyl)amino)-7-methoxy-2-methylquinazolin-6-yl)azetidine-3-carbonitrile]	–	88.4	23	–
COc1cc2nc(C)nc(N[C@H](C)c3cccc(C#N)c3C)c2cc1N1CCN(S(C)(=O)=O)CC1 [Compound 13, (R)-3-(1-((7-methoxy-2-methyl-6-(4-(methylsulfonyl)piperazin-1-yl)quinazolin-4-yl)amino)ethyl)-2-methylbenzonitrile]	–	–	25.4	73.5
COc1cc2nc(C)nc(N[C@H](C)c3cccc(C#N)c3C)c2cc1N1CCC(OC)CC1 [Compound 17, (R)-3-(1-((7-methoxy-6-(4-methoxypiperidin-1-yl)-2-methylquinazolin-4-yl)amino)ethyl)-2-methylbenzonitrile]	–	–	10.6	29.2
COc1cc2nc(C)nc(N[C@H](C)c3cccc(C#N)c3C)c2cc1N1CCC2(CC1)CNC2 [Compound 16c, (R)-3-(1-((7-methoxy-2-methyl-6-(2,7-diazaspiro[3.5]nonan-7-yl)quinazolin-4-yl)amino)ethyl)-2-methylbenzonitrile]	–	20.3	13.1	–
COc1cc2nc(C)nc(N[C@H](C)c3cccc(C#N)c3C)c2cc1N1CCC(C(=O)N(C)C)CC1 [Compound 22, (R)-1-(4-((1-(3-cyano-2-methylphenyl)ethyl)amino)-7-methoxy-2-methylquinazolin-6-yl)-N, N-dimethylpiperidine-4-carboxamide]	15.1	–	7.2	20.9
COc1cc2nc(C)nc(N[C@H](C)c3cccc(C#N)c3C)c2cc1N1CCC2(CCN(C(C)=O)CC2)CC1 [Compound 18, (R)-3-(1-((6-(9-acetyl-3,9-diazaspiro[5.5]undecan-3-yl)-7-methoxy-2-methylquinazolin-4-yl)amino)ethyl)-2-methylbenzonitrile]	6.9	–	2.6	–
